By GI50 is commonly meant the concentration that inhibits growth by half.

Consider one compound from paper PMC12486440, “Design, synthesis, and in silico studies of new benzofuran–pyrazole hybrids as multi-kinase inhibitors with potential antiproliferative activity” (RSC Advances, 2025).

The structures appear in SMILES notation.

One test concerns Leukemia subpanel. The experiment in a line: NCI 60 subpanel summary. Format: cell-based, human.
The subject of the next test is MCF-7 cancer cells. As to the kind of experiment: Cell cycle analysis (PI flow cytometry). The format is cell-based, human. Conditions: GI50 concentration 2.75 μM, 48 h. The procedure: More details are presented in the SI.
Given that 3d has emerged as a well-balanced active compound that functions as both an anticancer agent and a multi-targeting protein kinase suppressor, it was of interest to gain a deeper understanding of how 3d inhibits the growth of cancer cells. A propidium iodide (PI) staining experiment was performed in this study to look at its effect on cell cycle distribution and apoptosis activation.[81,82]
This blocked cell cycle passage at the G0–G1 stage can stop cells from dividing and growing, which is in line with that shown by other tests about the ability of compound 3d to stop cell division and growth (Fig. 3). […]
minute reaction, 50 μl of Kinase-Glo Max reagent was added to each well. […] 10) Luminescence was measured using the microplate reader. […]
The protocol of the experiment depends on the dilution of the enzyme, substrate, ATP, and inhibitors in kinase buffer. […] Then, luminescence (integration time 0.5–1 second) was recorded according to the manufacturer’s instructions. […]
Further exploration of the cytotoxic activity of compound 3d was performed using propidium iodide (PI) flow cytomertric analysis to measure the extent of PI that binds to DNA of dead cells with permeable plasma membranes to determine cell cycle status in tissue culture quantitate cell death at all cell phases. […]

A further test concerns HepG-2 cancer cells. As to the kind of experiment: Annexin V-FITC/PI apoptosis detection. Format: cell-based, human. Conditions: 24 h. On the procedure: The annexin V-FITC apoptosis detection kit (BD Biosciences) was used to quantify the percentage of cells undergoing apoptosis and detect the modes of cell death, either by apoptosis or necrosis, in the presence or absence of the active compound 3d. The experiment was carried out according to the manufacturer's protocol. More details are presented in the SI.
Flow cytometry assay employing annexin V-FITC and propidium iodide double labeling was used to further examine the apoptotic impact of compound 3d.[81,82] […] Additionally, 3d enhanced the late apoptotic effect from 0.17% in the control cells to 15.07% in the treated cells. Moreover, compound 3d promoted necrosis by 4.32% in the 3d-treated cells in comparison with 1.4% in the untreated ones (Table 5 and Fig. 4). These findings support the cytotoxic action of compound 3d on HepG-2 cells. In addition, it implies that its cytotoxic impact is not only due to it initiating programmed cell death pathways in an orderly manner but also its ability to effectively complete the apoptotic process, which results in the fragmentation and removal of cancer cells. […]
5.2.4. Annexin-V FTIC apoptotic study
Estimation of fractional DNA content (aka sub-G1 assay) is a widely used assay to determine apoptosis. Cleavage of genomic DNA into smaller fragments (180–200 bp lengths) is a hallmark for apoptosis in numerous cells. PI stained cells will stain less intensely and show a peak below the G1 peak (Sub-G1). In this work, flow cytometer with Annexin V-fluorescein isothiocyanate/propidium iodide FITC/PI double staining apoptosis detection kit (K101, Biovision) was used to study apoptosis of MCF-7 cells treated with compound 3d. Cells were incubated, collected by centrifugation, re-suspended in 500 μL of 1X binding buffer. Annexin V-FITC (5 μL) and PI (5 μL) was added and incubation was continued for additional 5 min in the dark at room temperature. Annexin V-FITC binding was analyzed by flow cytometry using FITC signal detector (FL1) and PI staining by FL2 phycoerythrin emission signal detector [75].

As for `c1ccc(-n2cc(C3CC(c4nc5ccccc5[nH]4)=NN3)c(-c3cc4ccccc4o3)n2)cc1` (centres unmarked) [3d, 3-(Benzofuran-2-yl)-4-(3-(1H-benzo[d]imidazol-2-yl)-4,5-dihydro-1H-pyrazol-5-yl)-1-phenyl-1H-pyrazole], the GI50 was 3.23 µM with Leukemia subpanel (Homo sapiens, subpanel mean graph midpoint, read-out: MG-MID (GI50)); 3.15 µM with SR (Homo sapiens, SR); 3.72 µM in the test with U251 (Homo sapiens, U-251); 6.25 µM in the test on RXF 393 (Homo sapiens, RXF 393). In the test on Leukemia subpanel (full panel MG-MID / subpanel MG-MID), this compound yielded a Selectivity index of 1.30. Further, the “cell percentage in the G2/M stage” value with MCF-7 cancer cells (control […]) was found to be 15.9%. In the test with MCF-7 cancer cells (untreated 48.39%), the “percentage of cells in the G0–G1 phase” value amounted to 61.03%. Also, in the test with HepG-2 cancer cells (control 0.17), the Late apoptosis was determined as 15.07%. The compound also had an Early apoptosis with HepG-2 cancer cells (control 0.52) of 24.66%. In the test with HepG-2 cancer cells (control 1.4), this compound displayed a Necrosis of 4.32%. Also, the “Apoptosis, total” value with HepG-2 cancer cells (control 2.09) is given as 44.05%. In addition, the GI% in the test on SR (single dose 10 μM, leukemia) was 91.17%; with U251 (single dose 10 μM, CNS cancer), 85.69%; with RXF 393 (single dose 10 μM, renal carcinoma) it was 63.52%.
